Experiment: Odor detection threshold (ODT)
Details: for ODT: Table 9
Source text: Within these defined water-release groups, odorants are then further described based on their experimentally determined odor detection thresholds (ODT) to further characterize the odor impact or olfactive intensity of a citrus and other olfactive types within the herein-described released group of odorants.
Upon their release in headspace, odorants are detected based on their odor detection threshold values. Odor detection thresholds are defined as the lowest concentration of odorants in a selected medium (air or water) to be detected. By including odor values of odorants in the model, one can further improve on the values for predicted performance of once odorants are released from the partition into the air.
Various databases for experimental odor detection threshold values in various partitions such as water and air are available. See Compilation of Odor and Taste Threshold Values Data, American Society for Testing and Materials, F. A. Fazzalari Editor; Booleans Aroma Chemical Information Service (BACIS)).

Structure (SMILES)	ODT [ppb]	odt (Table 11, in ppb)	odt (Table 13, in ppb)	odt (Table 15) [ppb]	odt (Table 17) [ppb]	odt (Table 13) [ppb]	odt (Table 11) [ppb]
C=CC(C)(O)CCC=C(C)CC (mixture of isomers) [ETHYL LINALOOL]	120	120.00	120.00	120	440		
CCCCCCCCCCC=O [ALDEHYDE C11]						7.7	
CCC(C)C(=O)N(C)c1ccccc1 (stereo not shown) [GARDAMIDE]	24	24.00	24.00	24	24		
CC(=O)OC(C)c1ccccc1 (stereo not shown) [STRALLYL ACETATE, STYRALLYL ACETATE]				110	110		
C=C(C)[C@H]1CC=C(C)CC1 [d-LIMONINE, d-1-Methyl-4-isopropenyl-1-cyclohexene]	430	430.00	430.00	430	430		
CCC(CC)C(=O)N(C)c1cccc(C)c1 [PARADISAMIDE]				0.6	0.6	0.8	
CC1CC(C)(c2ccccc2)CO1 (stereo not shown) [RHUBAFURAN]		440.00	440.00	440	440		
CCCCCCOC(C)=O [HEXYL ACETATE]	950	550.00	950.00				
CC(CC=O)CCc1ccccc1 (stereo not shown) [MEFRANAL]	17	17.00	17.00	17	17		
CC/C=C\CC/C=C/CO [TRANS 2 CIS 6 NONADENOL, TRANS 2 CIS 6 NONADIENOL]				1.5	1.5		
CC/C=C\CC/C=C/C=O [TRANS 2 CIS 6 NONADENAL, TRANS 2 CIS 6 NONADIENAL]				0.2	0.2		
CCCCCCC#CC(=O)OC [METHYL OCTINE CARBONATE]				9.7	8.7		
CCCCCCCC=O [ALDEHYDE C 8 (OCTANAL), OCTANAL]				4.8	4.5		
CCCCCCCCCC=O [ALDEHYDE C 10 (DECANAL), DECANAL]				8.7	6.7		
CCCCCCCCCCCC=O [ALDEHYDE C12 (DODECANAL), DODECANAL]				17	17		
CC(C)=CCCC(C)CC=O (stereo not shown) [CITRONELLAL]		33.00	33.00	33	33		
CCC=C(C)C(O)CCCCC (stereo not shown) [UNDECAVERTOL, 4-Methyl-3-decen-5-ol]				28	28		
CCOC(=O)CC1(C)OCCO1 [APPLINAL]	55	55.00	55.00				
CCOC(=O)CC(C)=O [ETHYL ACETOACETATE]	54	55.00	55.00				

Structure (SMILES)	ODT [ppb]	odt (Table 11, in ppb)	odt (Table 13, in ppb)	odt (Table 15) [ppb]	odt (Table 17) [ppb]	odt (Table 13) [ppb]	odt (Table 11) [ppb]
CCOC(=O)C(C)CC (stereo not shown) [Ethyl 2-methylbutyrate]	20	20.00	20.00				
CC1=CCC(C=CC(C)C(C)O)C1(C)C (stereo in doubt) [EBANOL]	54	54.00	54.00				
CC(C)=CCCC(C)CCO (stereo not shown) [CITRONELLOL]		29.00	29.00				
C=CCOC(=O)CCC1CCCCC1 [ALLYL CYCLOHXYL PROPIONATE, ALLYL CYCLOHEXYL PROPIONATE]	81	81.00	61.00				
C=CC(C)(O)CCC=C(C)C (stereo not shown) [LINALOOL, linalool]				20	20		
CC(C)=CCCC(C)=CC=O [CITRAL]		12.00	12.00				
CC/C=C\CCOC(=O)c1ccccc1O [CIS-3-HEXENYL SALICYLATE]	1.9			1.9	1.9	1.8	1.9
CCCCCCCCCCC=CC#N [TRIDECEN 2 NITRILE]				8.7	6.7		
CCCCCCCCCC=CC=O [MANDARIN ALDEHYDE]						1.5	
CCCCC/C=C\CCC=O [CIS 4 DECENAL]				3.1	3.1		
CC(C)CC1CCCC(C)(O)C1 (stereo not shown) [ROSSITOL]	440	440.00	440.00	440	120		
CC1=CC(C)C(C=O)CC1 (stereo not shown) [LIGUSTRAL]		110.00	110.00	110	110		
CC(C)=CCCC(C)C=O (stereo not shown) [MELONAL]				1.5	1.5		
CCC(C)(O)CCCC(C)C (stereo not shown) [TETRAHYDROLINALOOL]	380	380.00	380.00				
CCCCCC1C(=O)CCC1CC(=O)OC (stereo not shown) [METHYL DIHYDRO JASMONATE]	0.23					0.23	0.23
C=CC(C)CCCC(C)(C)O (stereo not shown) [DIHYDROMYRCENOL]	810	819.00	810.00	810	810		
CC(C)=CCCC(C)CC#N (stereo not shown) [CITRONELLYL NITRILE]	71	71.00	71.00	71	71		
CC/C=C\CCOC(C)=O [CIS-3-HEXENYL ACETATE]	170	170.00	170.00	170	170		
CCCCCCCCCCCC#N [LAURONITRILE]						6.7	

Source: US20100087351A1, “Perfumes for Linear Citrus Release in Rinse-Off Systems” (Quest International Services B.V., priority 2007, published 2010)
